Test results as given in patent US10441594B2, “Methods of making quinoa leachates and uses thereof” (priority 2013, dated 2019).

How the values were obtained:
[1] = test system: diet-induced obese, hyperglycemic mice (C57BL/6J); experiment: Acute hypoglycemic study in diet-induced obese mice (fasting blood glucose); format: in vivo; settings: 300 mg/kg oral
Description: An acute hypoglycemic study in diet-induced obese mice was performed as described previously (Cheng et al., Food Chem 135: 2994-3002, 2012, incorporated herein by reference). Briefly, five-week-old male C57Bl/6J mice (Jackson Labs), acclimated for 1 week with ad libitum access to chow (Purina, No. 5014) and water, and maintained on a very high-fat diet (VHFD) containing 60% fat-derived calories (D12492; Research Diets) for an additional 15 weeks to induce obesity, insulin resistance, and hyperglycemia. Food intake and body weight were monitored weekly. Following a 4-hour fasting period, fasting blood glucose (FBG) was measured using an AlphaTRAK® handheld glucometer (Abbott Labs, Inc.), and mice were randomly divided into FBG-balanced experimental groups.
Quinoa leachate (QL) was formulated in 70% Labrasol® (Gattefossé Corp., Paramus, N.J.). The biological activity of QL was tested using an oral ingestion of 0.25 ml per 50 g body weight of vehicle (70% Labrasol®) or QL (250 and 500 mg/kg) (n=7). Metformin® (300 mg/kg, dissolved in water) was administered as a positive control. FBG was reassessed 4 hours post-treatment. Mean FBG values before and after treatment were calculated for each group and compared using paired t-tests in Microsoft Excel. Additionally, final % FBG (final FBG/initial FBG×100) of each mouse was calculated 4 hours post-treatment. […]

[2] = test system: diet-induced obese, hyperglycemic mice; settings: 10 mg/kg body weight for 13 wk; cited from earlier work

CN(C)C(=N)N=C(N)N [Metformin]
hypoglycemic effect compared with control (1-way ANOVA, Dunnett's post hoc test) ([1]; 4 hours): significant hypoglycemic effects compared with control
FBG levels 4 hours after oral administration versus before treatment (paired t-test) ([1]; positive control): significantly lowered FBG levels

CC(C)(O)CC[C@@H](O)[C@](C)(O)[C@H]1CC[C@@]2(O)C3=CC(=O)[C@@H]4C[C@@H](O)[C@@H](O)C[C@]4(C)[C@H]3CC[C@]12C [20-HE, 20-hydroxyecdysone]
blood glucose levels [2]: significantly lowered blood glucose levels
reduction of adiposity compared with control [2]: 41%
